Results published in PMC11087482, “Discovering allatostatin type-C receptor specific agonists” (Nature Communications, 2024).
pEC50: −log10 of the molar value. Converted amounts (≈) assume the structure as drawn. Where two headings read alike, the source gives them in different places. Marks after values point to notes of the source that are not given here. Positions of bridges follow the written chain, without caps; N, C: chain ends. Non-standard residues stand in square brackets, D forms with d. Residues, ends and D or L forms follow the SMILES beside them. pGlu = O=C1CC[C@@H](C(=O)O)N1

Experiments:
[1] = system: Leptinotarsa decemlineata second-instar larvae; experiment: Side effect tests on potato beetle larvae, topical application; assay type: in vivo; conditions: 1000 ppm topical, second-instar larvae, days 3, 7, 14
Method: (§1) Pine processionary moth 2nd instar larvae of Thaumetopoea pityocampa for toxicity tests, adult, and 1st instar larvae of predator Calosoma sycophanta, 2nd instar larvae of potato beetle Leptinotarsa decemlineata were used for side effect assays.
(§2) L. decemlineata larvae were collected from a potato field in Kahramankazan district of Ankara province in 2022. The larvae were cultured in the laboratory under 60% (±10) humidity, 27(±2) °C temperature, and 16:8 light: dark photoperiod with potato plant leaves.
(§3) Effective molecules of toxicity tests were applied on adults, 1st instar larvae of predator C. sycophanta, and 2nd instar larvae of potato beetle L. decemlineata to evaluate side effects.
(§4) 5 µL of 1000 ppm dose were applied topically on the dorsal surface of the head-prothorax junction 2nd instar larvae of potato beetle. 30 larvae were used in assays, and larvae were placed on potato leaves inside the water-filled cups for feeding. Negative control groups were as previously described. Dimilin 25 WP (%25 diflubenzuron) was used as a positive control on L. decemlineata. Experiments were carried out with three repeats.
(§5) Insect deaths were evaluated on the 3rd, 7th, and 14th days in toxicity and side effect experiments. The ones that were not feeding or not responding by a movement to stimulation with a soft-tipped brush were accepted as dead. Percentage mortality values generated on the 14th day were corrected using Abbott’s formula[84]. Statistical analyses were executed with IBM SPSS Statistics (v26.0) and R Studio (2022.02.0), and two-way ANOVA and Tukey test were performed to detect the data’s statistical significance. Lethal concentration values of LC50–90 (dose that produces 50-90% mortality in the population) with 95% confidence intervals (CI) and slopes were obtained using PoloPlus software (LeOra Software, USA) for mortality values assessed on the 14th day for T. pityocampa and the 3rd day for L. decemlineata. The LC50–90 values were considered to be similar if their 95% CIs overlapped (P > 0.05)[85]. Analysis between-subject effects on T. pityocampa larva length; one-way ANOVA tests assessing the impacts of molecule treatment on T. pityocampa larvae on larva length; and analysis of between-subjects effects on T. pityocampa head capsule width, alongside one-way ANOVA tests regarding the effects of molecule treatment on T. pityocampa larvae to head capsule width are detailed in the Source Data File (Source Data Supplementary Data Tables 1–4). Source data is available as Source Data File.

[2] = system: Calosoma sycophanta first-instar larvae and adults; experiment: Side effect tests on predatory insect, topical application; assay type: in vivo; conditions: 1000 ppm topical, days 3, 7, 14
Method: as §1
C. sycophanta adults and T. pityocampa nests were collected from Korkuteli forests in Antalya 2022. T. pityocampa nests were stored at +4 °C to prevent pupae formation. 20 adult C. sycophanta were placed in clear plastic boxes (30 × 45 × 30 cm) with moist soil at the bottom. Adults were fed with T. pityocampa larvae regularly. After mating, C. sycophanta eggs were collected from the soil with a soft tip brush, and eggs were reserved in moist cotton until eggs cracked. Subsequently, C. sycophanta larvae were placed individually in clear, hard plastic cups (180 cm^3) containing moist soil and covered with glass. One T. pityocampa larva per day was added to each cup for feeding. Predator insects were cultured in 65 (±5) % humidity, 25 (±5) °C, and 16:8 light: dark photoperiod.
as §3
C. sycophanta larvae and adults were placed individually in clear, hard plastic cups (180 cc) containing moist soil. 5 µL of 1000 ppm dose was applied topically on the head-prothorax junction’s dorsal surface. 50 larvae and adults were used in the experiments. One T. pityocampa larva per day was added to each cup for feeding. Two negative controls were PBS-applied and no application groups.
as §5, with “Analysis between-subject effects on T. pityocampa larva length; one-way ANOVA tests assessing the impacts of molecule treatment on T. pityocampa larvae on larva length; and analysis of between-subjects effects on T. pityocampa head capsule width, alongside one-way ANOVA tests regarding the effects of molecule treatment on T. pityocampa larvae to head capsule width are detailed in the Source Data File (Source Data Supplementary Data Tables 1–4). Source data is available as Source Data File.” left out

T. pityocampa larvae [3] = experiment: Larval body allometry (body length, head capsule width) on day 14 of treatment; assay type: in vivo, Thaumetopoea pityocampa; conditions: for Larva Length, Mean Difference (I-J) versus Control / head capsule width, Mean Difference (I-J) versus Control: day 14, Tukey HSD, n = 20; for head capsule width / total body length: 14th day of treatment
Method: In addition, the ability of the identified hit compounds to alter larval body allometry was tested through measuring total body lengths and head capsule widths on the 14th day of treatment (Fig. 7).
as §5

T. pityocampa AlstR-C = experiment: TGF-α shedding assay on HEK293 cells overexpressing the receptor; assay type: cell-based, Thaumetopoea pityocampa; conditions: Gαq/i1, read-out: EC50 (AP-TGFα release)
Method: HEK293 cells were maintained in DMEM (PAN Biotech) supplemented with 10% FBS (Gibco) and 1% Penicillin-Streptomycin (Gibco) at 37 °C in a 5% CO2 incubator. Cells were seeded in 6-well plates before transfection, and Lipofectamine™ 3000 Transfection Reagent (Thermo Fisher Scientific) was used for transfection in compliance with the manufacturer’s instructions.
HEK293 cells were seeded in DMEM 10% FBS without P/S to 6-well plates 1 day before the transfection. Following overnight incubation at 37 °C, the cells were cotransfected with plasmids of the desired receptor (100 ng)[44],[48] or pcDNA3.1, AP-TGFα (250 ng), and Gαq/i1 (10 ng) using Lipofectamine™ 3000 Transfection Reagent and incubated 24 h at 37 °C 5% CO2 incubator. Plasmids used for the TGF-α shedding assay were kindly gifted from Prof. Asuka Inoue[82],[83]. TGF-α Shedding Assay was used to measure the activity of studied compounds[83]. Cell harvesting was accomplished with TrypLE™ Express Enzyme (Gibco) since it was previously noted that trypsinization results in a higher background signal. After reseeding the cells in a 96-well plate, 10x concentrations of the compounds prepared in HBSS were applied for stimulation. For compounds not readily soluble in water, a concentration of 0.01 % (w/v) bovine serum albumin (BSA) in HBSS was used for dilution. Each treatment was performed with four replicas. Alkaline phosphatase activity was measured before and after 1-h and 2-h incubation at room temperature, and the absorbance of the plates at 405 nm was measured. AP-TGF-α release signals were fitted to a four-parameter sigmoidal dose-response curve, and EC50 values were calculated using GraphPad Prism 9.5.

T. pityocampa larvae [4] = experiment: Toxicity tests, topical application on second instar larvae; assay type: in vivo; conditions: for Mean mortality: highest effect
Method: as §1
T. pityocampa larvae were collected from red pine trees, Pinus brutia, in Nallıhan district of Ankara, Türkiye, in 2021. Larvae were cultured in 60 (±10) % humidity, 27 (±2) °C, and 16:8 light: dark photoperiod and were fed with red pine needles.
Stock solutions of the molecules were dissolved in DMSO, AST-C peptide was dissolved in PBS supplemented with 0.1% BSA pH 7.4. Dilutions were prepared in PBS supplemented with 0.1% BSA pH 7.4 in 50, 100, 250, 500, 750, and 1000 ppm (mg/L) concentrations and later placed in an ultrasonic bath (Sonorex, Bandelin) for ~10 min at 37 °C until all precipitates had vanished. Toxicity tests were conducted 1 day after larvae collection. 5 µL of doses were applied on the dorsal surface of the head-prothorax junction topically. […] Two negative control groups were prepared as PBS-applied and no application. Following the procedures, larvae were fed with 15 g P. brutia needles. Experiments were carried out on 10 larvae for each dosage, with three repeats.
as §5

AlstR-C = experiment: GloSensor cAMP assay after forskolin stimulation; assay type: cell-based, Thaumetopoea pityocampa; conditions: after 10 µM forskolin
Method: The ability of the hit compounds to activate the Gαi pathway was evaluated using a commercial cAMP assay (GloSensor, Promega). Prior to ligand treatment, cells were stimulated with 10 µM forskolin to elevate intracellular cAMP levels, and the ability of each ligand and control to downregulate cAMP was evaluated after 1 h. […] As an additional control, the ability of the hit compounds to activate a different receptor (5-HTR4) was also assessed using an AP-TGFα assay (Fig. 4k).
HEK293 cells were seeded 30,000 cells per well in DMEM 10% FBS without P/S to Greiner 655094 96-well plates 1 day before the transfection. Following overnight incubation at 37 °C, the cells were cotransfected with plasmids of the desired receptor along with GloSensor^TM cAMP plasmid using Lipofectamine™ 3000 Transfection Reagent and incubated 24 h at 37 °C 5% CO2 incubator. […] The baseline development was measured on a Thermo Scientific Fluoroskan Ascent FL Microplate Fluorometer and Luminometer plate reader following the cell stimulation with 10 μL 10 μM forskolin, approximately 1 h. […] Luminescence was measured at 1 read per well every 2 min, scaling factor was 10. Data were analyzed by calculating the area under the curve (AUC) over the ~2-h measurement period. Statistical significance was measured with ANOVA, and multiple comparisons were done with Dunnett’s Test. […]

[5] = set-up: method as in PMID 19540423, PMID 20936640; conditions: cited from earlier work
[6] = Side effect tests on potato beetle larvae, topical application; assay type: in vivo; conditions: Leptinotarsa decemlineata, in vivo
Method: as §1, §2, §3, §4, §5

[7] = Thaumetopoea pityocampa, topical, 336 h
[8] = Thaumetopoea pityocampa, topical, 336 h, read-out: LC50 (95% CI)
[9] = day 14 mortality, Probit analysis

| SMILES | Insect deaths (mortality rate) [1] | Insect deaths (mortality rate) [2] | Larva Length, Mean Difference (I-J) versus Control (T. pityocampa larvae [3]) | head capsule width, Mean Difference (I-J) versus Control (T. pityocampa larvae [3]) | pEC50 (T. pityocampa AlstR-C) | LC50 (T. pityocampa larvae [4]; [7]) [µg/mL] | LC50 (T. pityocampa larvae [4]; [8]) [µg/mL] | LC90 (95% CI) (T. pityocampa larvae [4]; [9]) | ability to downregulate cAMP (RLU) (AlstR-C) | head capsule width (T. pityocampa larvae [3]) | total body length (T. pityocampa larvae [3]) | shelf life and degradation in the environment [5] | Mean mortality (T. pityocampa larvae [4]; 14 days post-administration) [%] | LC50 (T. pityocampa larvae [4]; day 14 after the application, Probit analysis) [ppm] | LC50 (95% CI) (T. pityocampa larvae [4]; [9]) | mortality (T. pityocampa larvae [4]; after 3 days, >500 ppm) [%] | mortality rate (T. pityocampa larvae [4]; 14 days post-administration, highest dose) | mortality (T. pityocampa larvae [4]; end of day 7, 1000 ppm) [%] | LC50 at 3 days ([6]; L. decemlineata larvae, positive control, 3rd day mortality) [µg/mL] | LC50 at 3 days ([6]; potato beetle larvae, after 3 days of application) [µg/mL] |
| --- | --- | --- | --- | --- | --- | --- | --- | --- | --- | --- | --- | --- | --- | --- | --- | --- | --- | --- | --- | --- |
| O=C(C[C@@H]1NC(=O)c2ccccc2NC1=O)NCCn1c(=O)c(O)nc2ccccc21 [J100-0311] | below 10% | below 10% | -8,015* mm | -1,075* mm | 5.25 | 411 (≈ 975 µM) | 412 (≈ 977 µM) | 6740.368 (2743.061–6.275 × 10^4) mg/L | – | – | – | – | – | – | – | – | – | – | – | – |
| CC[C@H](C)[C@@H]1NC(=O)[C@@H]2CCCN2C(=O)[C@H](CC(N)=O)NC(=O)[C@H](Cc2ccccc2)NC(=O)[C@H](Cc2ccc(O)cc2)NC(=O)[C@@H](NC(=O)[C@H](CCC(N)=O)NC(=O)[C@H](CCCNC(=N)N)NC(=O)[C@H](Cc2ccccc2)NC(=O)[C@H](CCCNC(=N)N)NC(=O)[C@@H](NC(=O)[C@@H]2CCC(=O)N2)C(C)C)CSSC[C@@H](C(=O)N[C@@H](Cc2ccccc2)C(=O)O)NC(=O)[C@H](CO)NC1=O [AST-C, reference compound] ([pGlu]VRFRQCYFNPISCF-OH; disulfide 7-14; C-terminus assumed) | – | – | -9,070* mm | -1,105* mm | 9.21 | – | – | 782.851 (512.785–1616.980) mg/L | most significant impact | Statistically significant decreases | Statistically significant decreases | comparatively short shelf life and undergoes rapid degradation in the environment | 100 | 152 | 152.414 (101.993–209.528) mg/L | – | – | – | – | – |
| O=C1c2n[nH]c(-c3ccccc3O)c2C(c2cccc(OCc3ccccc3)c2)N1CC1CCCO1 (stereo not drawn) [D074-0034] | below 10% | below 10% | -7,845* mm | -1,000* mm | 5.33 | 443 (≈ 920 µM) | 444 (≈ 921 µM) | – | – | – | – | – | – | – | – | – | – | – | – | – |
| COc1ccc([C@H](CC(=O)NCc2ccncc2)c2cn(Cc3ccc(C)cc3)c3ccccc23)cc1OCc1ccccc1 [V029-3547] | below 10% | below 10% | -8,705* mm | -1,120* mm | 5.09 | 406 (≈ 682 µM) | 406 (≈ 682 µM) | 900.815 (696.503–1634.450) mg/L | greatest ability to modulate cAMP | – | – | – | 83.7 | – | – | > 63.3 | – | – | – | – |
| O=C1c2n[nH]c(-c3ccccc3O)c2C(c2cccc(Oc3ccccc3)c2)N1CC1CCCO1 (stereo not drawn) [D074-0013] | below 10% | below 10% | -4,445* mm | – | 5.85 | – | > 1000 | – | – | small compared to other molecules | small compared to other molecules | – | – | – | – | – | below 50% | 27 | – | – |
| O=C(NC(=O)c1c(F)cccc1F)Nc1ccc(Cl)cc1 [Diflubenzuron, diflubenzuron, reference compound] | – | – | – | – | – | – | – | – | – | – | – | – | – | – | – | – | – | – | 38.5 (≈ 124 µM) | 38 (≈ 122 µM) |
